Reference: BindingDB's records for doi:10.1021/acs.jmedchem.5b01091 (University of Manchester, 2016)

Assay: Inhibition of NLRP3 in mouse J774 macrophages assessed as reduction in Bacillus anthracis lethal toxin induced cell death

In the case of `CC1(C)C(=O)C=C[C@]2(C)[C@H]3CC[C@@]4(C)[C@H](c5ccoc5)OC(=O)[C@H]5O[C@]54[C@]3(C)C=C[C@@H]12`, the IC50 is reported as 5 µM.
